Assay results taken from patent US20100298141A1, “SUBSTITUTED PYRIDINE N-OXIDE HERBICIDES” (E. I. DU PONT DE NEMOURS AND COMPANY, priority 2007, published 2010).

Experiments:
[1] = tested on: cocklebur; assay: Test C pre-/postemergence test; format: in vivo, Xanthium strumarium; conditions: for Plant response rating, Cocklebur: scale 0 to 100, 0 no effect, 100 complete control
How it was run: (§1)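 Test chemicals were formulated with surfactant in a non-phytotoxic solvent and sprayed both on freshly planted seeds (preemergence) and on 1- to 4-leaf plants of 2–18 cm (postemergence). Flooded-paddy pots received compound directly into 3 cm of standing water, maintained for the test.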

[2] = tested on: common ragweed; assay: Test C pre-/postemergence test; format: in vivo, Ambrosia elation; conditions: for Plant response rating, Ragweed: scale 0 to 100, 0 no effect, 100 complete control
How it was run: as §1

[3] = tested on: lambsquarters; assay: Test C pre-/postemergence test; format: in vivo, Chenopodium album; conditions: for Plant response rating, Lambsquarters: scale 0 to 100, 0 no effect, 100 complete control
How it was run: as §1

[4] = tested on: yellow nutsedge; assay: Test C pre-/postemergence test; format: in vivo, Cyperus esculentus; conditions: for Plant response rating, Nutsedge, Yellow: scale 0 to 100, 0 no effect, 100 complete control
How it was run: as §1

[5] = tested on: giant foxtail; assay: Test C pre-/postemergence test; format: in vivo, Setaria faberii; conditions: for Plant response rating, Foxtail, Giant: scale 0 to 100, 0 no effect, 100 complete control
How it was run: as §1

[6] = tested on: crabgrass; assay: Test A pre-/postemergence greenhouse test; format: in vivo, Digitaria sanguinalis; conditions: for Crabgrass, Large plant response rating: 0 to 100 scale
How it was run: (§2)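 Pre: directed soil spray on seeded loam/sand. Post: foliar spray, plants 2–10 cm, 1–2 leaf stage, applied concurrently. Vehicle: non-phytotoxic solvent + surfactant. Greenhouse ~10 d; visual injury rating vs untreated controls.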

[7] = tested on: Goosegrass; assay: Test C pre-/postemergence test; format: in vivo, Eleusin indica; conditions: for Plant response rating, Goosegrass: scale 0 to 100, 0 no effect, 100 complete control
How it was run: as §1

[8] = tested on: corn; assay: Test C pre-/postemergence test; format: in vivo, Zea mays; conditions: for Plant response rating, Corn: scale 0 to 100, 0 no effect, 100 complete control
How it was run: as §1

[9] = tested on: soybean; assay: Test C pre-/postemergence test; format: in vivo, Glycine max; conditions: for Plant response rating, Soybean: scale 0 to 100, 0 no effect, 100 complete control
How it was run: as §1

[10] = tested on: morningglory; assay: Test A pre-/postemergence greenhouse test; format: in vivo, Ipomoea spp.; conditions: for Morningglory plant response rating: 0 to 100 scale
How it was run: as §2

[11] = tested on: giant foxtail; assay: Test A pre-/postemergence greenhouse test; format: in vivo, Setaria faberi; conditions: for Foxtail, Giant plant response rating: 0 to 100 scale
How it was run: as §2

[12] = tested on: downy brome; assay: Test C pre-/postemergence test; format: in vivo, Bromus tectorum; conditions: for Plant response rating, Bromegrass, Downy: scale 0 to 100, 0 no effect, 100 complete control
How it was run: as §1

[13] = tested on: morningglory; assay: Test C pre-/postemergence test; format: in vivo, Ipomoea coccinea; conditions: for Plant response rating, Morningglory: scale 0 to 100, 0 no effect, 100 complete control
How it was run: as §1

[14] = tested on: wheat; assay: Test A pre-/postemergence greenhouse test; format: in vivo, Triticum aestivum; conditions: for Wheat plant response rating: 0 to 100 scale
How it was run: as §2

[15] = tested on: johnsongrass; assay: Test C pre-/postemergence test; format: in vivo, Sorghum halepense; conditions: for Johnsongrass plant response rating: preemergence, scale 0 (no effect) to 100 (complete control); for Plant response rating, Johnsongrass: scale 0 to 100, 0 no effect, 100 complete control
How it was run: as §1

[16] = tested on: woolly cupgrass; assay: Test C pre-/postemergence test; format: in vivo, Eriochloa villosa; conditions: for Plant response rating, Cupgrass, Woolly: scale 0 to 100, 0 no effect, 100 complete control
How it was run: as §1

[17] = 31 g ai/ha, Preemergence, scale 0 to 100
[18] = 62 g ai/ha, preemergence, scale 0 (no effect) to 100 (complete control)
[19] = preemergence, 125 g ai/ha, scale 0 (no effect) to 100 (complete control)
[20] = Postemergence, 125 g ai/ha, 0 is no effect, 100 is complete control
[21] = Postemergence, 500 g ai/ha, 0 is no effect, 100 is complete control
[22] = Preemergence, 125 g ai/ha, 0 no effect, 100 complete control
[23] = Preemergence, 500 g ai/ha, 0 to 100 scale where 0 is no effect and 100 is complete control

Cn1nc(C(F)(F)F)c(C[S+]([O-])c2cccc[n+]2[O-])c1OC(F)F (stereo not drawn) [Compound 3]
Cocklebur plant response rating [1, 17]: 0 | Cocklebur plant response rating [1, 18]: 0 | Plant response rating (0 to 100), Cocklebur ([1]; Postemergence, 31 g ai/ha): 0 | Plant response rating, Cocklebur ([1]; Postemergence, 62 g ai/ha): 0 | Plant response rating, Cocklebur ([1]; Postemergence, 125 g ai/ha): 0 | Plant response rating, Cocklebur ([1]; Postemergence, 250 g ai/ha): 10 | Plant response rating (0 to 100), Cocklebur ([1]; Preemergence, 250 g ai/ha): 5 | Cocklebur plant response rating [1, 19]: 0 | Ragweed plant response rating [2, 17]: 100 | Ragweed plant response rating [2, 18]: 100 | Plant response rating (0 to 100), Ragweed ([2]; Postemergence, 31 g ai/ha): 5 | Plant response rating (0 to 100), Ragweed ([2]; Postemergence, 62 g ai/ha): 5 | Plant response rating, Ragweed ([2]; Postemergence, 125 g ai/ha): 50 | Plant response rating, Ragweed ([2]; Postemergence, 250 g ai/ha): 50 | Plant response rating (0 to 100), Ragweed ([2]; Preemergence, 250 g ai/ha): 100 | Ragweed plant response rating [2, 19]: 100 | Lambsquarters plant response rating [3, 17]: 98 | Lambsquarters plant response rating [3, 18]: 100 | Plant response rating (0 to 100), Lambsquarters ([3]; Postemergence, 31 g ai/ha): 10 | Plant response rating, Lambsquarters ([3]; Postemergence, 62 g ai/ha): 15 | Plant response rating, Lambsquarters ([3]; Postemergence, 125 g ai/ha): 20 | Plant response rating, Lambsquarters ([3]; Postemergence, 250 g ai/ha): 20 | Plant response rating (0 to 100), Lambsquarters ([3]; Preemergence, 250 g ai/ha): 100 | Lambsquarters plant response rating [3, 19]: 100 | Nutsedge, Yellow plant response rating [4, 17]: 0 | Nutsedge, Yellow plant response rating [4, 18]: 100 | Plant response rating (0 to 100), Nutsedge, Yellow ([4]; Postemergence, 31 g ai/ha): 0 | Plant response rating, Nutsedge, Yellow ([4]; Postemergence, 62 g ai/ha): 0 | Plant response rating, Nutsedge, Yellow ([4]; Postemergence, 125 g ai/ha): 0 | Plant response rating, Nutsedge, Yellow ([4]; Postemergence, 250 g ai/ha): 0 | Plant response rating (0 to 100), Nutsedge, Yellow ([4]; Preemergence, 250 g ai/ha): 100 | Nutsedge, Yellow plant response rating [4, 19]: 100 | Foxtail, Giant plant response rating [5, 17]: 60 | Foxtail, Giant plant response rating [5, 18]: 90 | Plant response rating (0 to 100), Foxtail, Giant ([5]; Postemergence, 31 g ai/ha): 0 | Plant response rating, Foxtail, Giant ([5]; Postemergence, 62 g ai/ha): 40 | Plant response rating, Foxtail, Giant ([5]; Postemergence, 125 g ai/ha): 50 | Plant response rating, Foxtail, Giant ([5]; Postemergence, 250 g ai/ha): 55 | Plant response rating (0 to 100), Foxtail, Giant ([5]; Preemergence, 250 g ai/ha): 100 | Foxtail, Giant plant response rating [5, 19]: 98 | Crabgrass, Large plant response rating [6, 20]: 80 | Crabgrass, Large plant response rating [6, 21]: 90 | Crabgrass, Large plant response rating [6, 22]: 90 | Plant response rating, Crabgrass, Large [6, 23]: 100 | Goosegrass plant response rating [7, 17]: 85 | Goosegrass plant response rating [7, 18]: 100 | Plant response rating (0 to 100), Goosegrass ([7]; Postemergence, 31 g ai/ha): 20 | Plant response rating, Goosegrass ([7]; Postemergence, 62 g ai/ha): 50 | Plant response rating, Goosegrass ([7]; Postemergence, 125 g ai/ha): 65 | Plant response rating, Goosegrass ([7]; Postemergence, 250 g ai/ha): 80 | Plant response rating (0 to 100), Goosegrass ([7]; Preemergence, 250 g ai/ha): 100 | Goosegrass plant response rating [7, 19]: 100 | Corn plant response rating [8, 17]: 50 | Corn plant response rating [8, 18]: 75 | Plant response rating (0 to 100), Corn ([8]; Postemergence, 31 g ai/ha): 0 | Plant response rating, Corn ([8]; Postemergence, 62 g ai/ha): 5 | Plant response rating, Corn ([8]; Postemergence, 125 g ai/ha): 5 | Plant response rating, Corn ([8]; Postemergence, 250 g ai/ha): 5 | Plant response rating (0 to 100), Corn ([8]; Preemergence, 250 g ai/ha): 98 | Corn plant response rating [8, 19]: 90 | Soybean plant response rating [9, 17]: 5 | Soybean plant response rating [9, 18]: 30 | Plant response rating (0 to 100), Soybean ([9]; Postemergence, 31 g ai/ha): 40 | Plant response rating (0 to 100), Soybean ([9]; Postemergence, 62 g ai/ha): 60 | Plant response rating, Soybean ([9]; Postemergence, 125 g ai/ha): 70 | Plant response rating, Soybean ([9]; Postemergence, 250 g ai/ha): 85 | Plant response rating (0 to 100), Soybean ([9]; Preemergence, 250 g ai/ha): 95 | Soybean plant response rating [9, 19]: 95 | Morningglory plant response rating [10, 20]: 70 | Morningglory plant response rating [10, 21]: 90 | Morningglory plant response rating [10, 22]: 80 | Plant response rating, Morningglory [10, 23]: 100 | Foxtail, Giant plant response rating [11, 20]: 80 | Foxtail, Giant plant response rating [11, 21]: 90 | Foxtail, Giant plant response rating [11, 22]: 100 | Plant response rating, Foxtail, Giant [11, 23]: 100 | Bromegrass, Downy plant response rating [12, 17]: 0 | Bromegrass, Downy plant response rating [12, 18]: 60 | Plant response rating (0 to 100), Bromegrass, Downy ([12]; Postemergence, 31 g ai/ha): 0 | Plant response rating, Bromegrass, Downy ([12]; Postemergence, 62 g ai/ha): 0 | Plant response rating, Bromegrass, Downy ([12]; Postemergence, 125 g ai/ha): 0 | Plant response rating, Bromegrass, Downy ([12]; Postemergence, 250 g ai/ha): 0 | Plant response rating (0 to 100), Bromegrass, Downy ([12]; Preemergence, 250 g ai/ha): 100 | Bromegrass, Downy plant response rating [12, 19]: 98 | Morningglory plant response rating [13, 17]: 50 | Morningglory plant response rating [13, 18]: 90 | Plant response rating (0 to 100), Morningglory ([13]; Postemergence, 31 g ai/ha): 5 | Plant response rating, Morningglory ([13]; Postemergence, 62 g ai/ha): 50 | Plant response rating, Morningglory ([13]; Postemergence, 125 g ai/ha): 50 | Plant response rating, Morningglory ([13]; Postemergence, 250 g ai/ha): 50 | Plant response rating (0 to 100), Morningglory ([13]; Preemergence, 250 g ai/ha): 100 | Morningglory plant response rating [13, 19]: 100 | Wheat plant response rating [14, 20]: 60 | Wheat plant response rating [14, 21]: 70 | Wheat plant response rating [14, 22]: 60 | Plant response rating, Wheat [14, 23]: 100 | Johnsongrass plant response rating ([15]; 62 g ai/ha): 98 | Plant response rating (0 to 100), Johnsongrass ([15]; Postemergence, 31 g ai/ha): 0 | Plant response rating, Johnsongrass ([15]; Postemergence, 62 g ai/ha): 0 | Plant response rating, Johnsongrass ([15]; Postemergence, 125 g ai/ha): 20 | Plant response rating, Johnsongrass ([15]; Postemergence, 250 g ai/ha): 20 | Plant response rating (0 to 100), Johnsongrass ([15]; Preemergence, 250 g ai/ha): 100 | Johnsongrass plant response rating ([15]; 125 g ai/ha): 100 | Cupgrass, Woolly plant response rating [16, 17]: 60 | Cupgrass, Woolly plant response rating [16, 18]: 60 | Plant response rating (0 to 100), Cupgrass, Woolly ([16]; Postemergence, 31 g ai/ha): 0 | Plant response rating, Cupgrass, Woolly ([16]; Postemergence, 62 g ai/ha): 0 | Plant response rating, Cupgrass, Woolly ([16]; Postemergence, 125 g ai/ha): 20 | Plant response rating, Cupgrass, Woolly ([16]; Postemergence, 250 g ai/ha): 40 | Plant response rating (0 to 100), Cupgrass, Woolly ([16]; Preemergence, 250 g ai/ha): 100 | Cupgrass, Woolly plant response rating [16, 19]: 85
